Test results reported in ChEMBL document CHEMBL6096711, “Discovery of Novel Pyrimidine Derivatives as Human Pin1 Covalent Inhibitors” (ACS Med Chem Lett, 2025).
Where a SMILES comes first, the peptide text is derived from it. [ ]: non-standard residue; d: D form. The star is where a group is joined. NMeF = CN[C@@H](Cc1ccccc1)C(=O)O; Pip = O=C(O)[C@@H]1CCCCN1; ClAc = O=C(CCl)*

Key:
MCF7 = test: cells; conditions: Homo sapiens, MCF7, 96 h
Description: Antitumor activity against human MCF7 cells assessed as inhibition of cell growth measured after 96 hrs by MTT assay

HCT-116 = test: cells; conditions: Homo sapiens, HCT-116, 96 h
Description: Antitumor activity against human HCT-116 cells assessed as inhibition of cell growth measured after 96 hrs by MTT assay

[1] = biological target: T1, Peptidyl-prolyl cis-trans isomerase NIMA-interacting 1 (Homo sapiens, UniProt Q13526); test: Inhibition of human Pin1 extracted from Escherichia coli BL21 (DE3) cells using TAMRA labelled Bth-(D-Thr(PO3H2))-Pip-Nal-NH2 peptide probe as substrate by fluorescence polarization assay
T1 sequence (Q13526 whole entry): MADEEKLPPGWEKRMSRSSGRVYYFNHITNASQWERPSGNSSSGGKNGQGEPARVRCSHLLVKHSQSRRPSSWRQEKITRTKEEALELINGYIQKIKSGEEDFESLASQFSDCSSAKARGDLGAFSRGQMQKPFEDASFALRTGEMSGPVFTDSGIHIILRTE

[2] = biological target: T1, Peptidyl-prolyl cis-trans isomerase NIMA-interacting 1; test: Inhibition of human Pin1 using Suc-Ala-Glu-Pro-Phe04-nitroanilide as peptide substrate preincubated for 14 hrs followed by substrate addition and measured immediately by chymotrypsin-coupled PPIase assay
[3] = Stability in mouse liver microsomes assessed as half life; type: ADME, Microsome

| IC50 (MCF7) [µM] | IC50 (HCT-116) [µM] | IC50 [1] [µM] | IC50 [2] [µM] | half-life [3] [min] | Structure (SMILES) |
| --- | --- | --- | --- | --- | --- |
| 4.24 | 2.6 | – | – | – | O=[N+]([O-])c1cnc(Cl)nc1N(Cc1ccc(-c2cccc3ccoc23)s1)C1CCS(=O)(=O)C1 (configuration not stated) |
| > 100 | 7.54 | 0.12 | 0.12 | – | CC(C)(C)CN(C(=O)CCl)C1CCS(=O)(=O)C1 (configuration not stated) |
| 5.26 | > 100 | – | – | – | O=[N+]([O-])c1cnc(N(Cc2coc3ccccc23)C2CCS(=O)(=O)C2)nc1Cl (configuration not stated) |
| – | – | – | – | 1.2 | CCOC(=O)[C@H](CCCNC(=N)N)NC(=O)[C@H](Cc1c[nH]c2ccccc12)NC(=O)[C@@H]1CCCCN1C(=O)[C@H](Cc1ccccc1)N(C)C(=O)CCl (ClAc-[NMeF][Pip]WR-OEt) |
| 4.95 | 3.35 | – | – | – | O=[N+]([O-])c1cnc(Cl)nc1N(Cc1ccc(-c2ccc3ccccc3c2)s1)C1CCS(=O)(=O)C1 (configuration not stated) |
| > 100 | 5.04 | – | – | – | O=[N+]([O-])c1cnc(Cl)nc1N(Cc1cccc2ccccc12)C1CCS(=O)(=O)C1 (configuration not stated) |
| – | – | 101 | – | – | O=[N+]([O-])c1cnc(Cl)nc1N(CC1CCCCC1)C1CCS(=O)(=O)C1 (configuration not stated) |
| 3.94 | > 100 | – | – | – | O=[N+]([O-])c1cnc(N(Cc2ccc3ccccc3c2)C2CCS(=O)(=O)C2)nc1Cl (configuration not stated) |
| – | – | 144 | – | – | O=S1(=O)CCC(Nc2nc(Cl)nc(Cl)n2)C1 (configuration not stated) |
